System: Recombinant human AMPK proteins (α1β1γ1, α2β1γ1, α1(1-335), α1(1-394) or α2(1-394))
Experiment: Scintillation Proximity Assay (SPA) of AMPK activation
Format: biochemical
Settings: activator concentration for 50% of maximal enzyme activity; 50 nM recombinant AMPK, 2 μM ATP, 30° C., 2 hr
In short: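 Recombinant human AMPK (α1β1γ1, α2β1γ1 or α-subunit truncations), fully pre-phosphorylated, was used at 50 nM with 2 μM biotin-SAMS, 2 μM ATP plus [γ-^33P]ATP in Tris-HCl pH 7.5, MgCl2, DTT, 2 hr at 30° C. Product was captured on streptavidin SPA beads. EC50 was the activator concentration giving 50% of maximal activity.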

For `COC(=O)c1cccc(CN2C(=O)C(=C(c3ccccc3)c3ccccc3)c3ccccc32)c1` [Example 7, 3-(3-Benzhydrylidene-2-oxo-2,3-dihydro-indol-1-ylmethyl)-benzoic acid methyl ester], the EC50 was 1.54 µM.

For `COc1cc(/C(=C2/C(=O)N(Cc3cccc(C(=O)O)c3)c3ccccc32)c2ccccc2)cc(OC)c1OC` [Example 51, 3-{2-Oxo-3-[1-phenyl-1-(3,4,5-trimethoxy-phenyl)-meth-(E)-ylidene]-2,3-dihydro-indol-1-ylmethyl}-benzoic acid], the EC50 was 1.42 µM.

Compound `COC(=O)c1cccc(CN2C(=O)/C(=C(/c3ccc(Cl)cc3)c3ccccc3OC)c3ccccc32)c1` [Example 10, 3-{3-[1-(4-Chloro-phenyl)-1-(2-methoxy-phenyl)-meth-(Z)-ylidene]-2-oxo-2,3-dihydro-indol-1-ylmethyl}-benzoic acid methyl ester] has an EC50 of 4.44 µM.

Work on `COC(=O)c1cccc(CN2C(=O)/C(=C(\c3ccccc3)c3cc(OC)c(OC)c(OC)c3)c3ccccc32)c1` [Example 14, 3-{2-Oxo-3-[1-phenyl-1-(3,4,5-trimethoxy-phenyl)-meth-(E)-ylidene]-2,3-dihydro-indol-1-ylmethyl}-benzoic acid methyl ester] yielded an EC50 of 4.34 µM.

`COC(=O)c1cccc(CN2C(=O)/C(=C(\c3ccccc3)c3cccc(Br)c3)c3ccccc32)c1` [Example 27, 3-{3-[1-(3-Bromo-phenyl)-1-phenyl-meth-(E)-ylidene]-2-oxo-2,3-dihydro-indol-1-ylmethyl}-benzoic acid methyl ester] showed an EC50 of 2.73 µM.

With `O=C(O)c1cccc(CN2C(=O)/C(=C(\c3ccccc3)c3ccc(Cl)cc3)c3ccccc32)c1` [Example 44, 3-{3-[1-(4-Chloro-phenyl)-1-phenyl-meth-(E)-ylidene]-2-oxo-2,3-dihydro-indol-1-ylmethyl}-benzoic acid] the EC50 was 1.21 µM.

With `COC(=O)c1cccc(CN2C(=O)/C(=C(/c3ccccc3)c3ccc(Cl)cc3)c3ccccc32)c1` [Example 34, 3-{3-[1-(4-Chloro-phenyl)-1-phenyl-meth-(Z)-ylidene]-2-oxo-2,3-dihydro-indol-1-ylmethyl}-benzoic acid methyl ester] the EC50 was 1.8 µM.

In the case of `O=C(O)c1ccc(CN2C(=O)/C(=C(\c3ccccc3)c3ccc(Cl)cc3)c3ccccc32)nc1` [Example 59, 6-{3-[1-(4-Chloro-phenyl)-1-phenyl-meth-(E)-ylidene]-2-oxo-2,3-dihydro-indol-1-ylmethyl}-nicotinic acid], the EC50 is reported as 5.19 µM.

With `CSc1ccccc1/C(=C1/C(=O)N(Cc2cccc(C(=O)O)c2)c2ccccc21)c1ccccc1` [Example 62, 3-{3-[1-(2-Methylsulfanyl-phenyl)-1-phenyl-meth-(E)-ylidene]-2-oxo-2,3-dihydro-indol-1-ylmethyl}-benzoic acid] the EC50 was 2.33 µM.

Work on `CC(=O)c1ccc(/C(=C2/C(=O)N(Cc3cccc(C(=O)O)c3)c3ccccc32)C(C)C)cc1` [Example 108, 3-{3-[1-(4-Acetyl-phenyl)-2-methyl-prop-(E)-ylidene]-2-oxo-2,3-dihydro-indol-1-ylmethyl}-benzoic acid] yielded an EC50 of 3.25 µM.

Work on `O=C(O)COc1ccc(CN2C(=O)/C(=C(\c3ccccc3)c3ccc(Cl)cc3)c3ccccc32)cc1` [Example 70, (4-{3-[1-(4-Chloro-phenyl)-1-phenyl-meth-(E)-ylidene]-2-oxo-2,3-dihydro-indol-1-ylmethyl}-phenoxy)-acetic acid] yielded an EC50 of 4.96 µM.

Compound `O=C1/C(=C(\c2ccccc2)c2ccc(Cl)cc2)c2ccccc2N1Cc1cc(O)c(O)c(O)c1` [Example 41, 3-[1-(4-Chloro-phenyl)-1-phenyl-meth-(E)-ylidene]-1-(3,4,5-trihydroxy-benzyl)-1,3-dihydro-indol-2-one] has an EC50 of 4.51 µM.

Work on `CC(C)/C(Cc1ccc(Cl)cc1)=C1\C(=O)N(Cc2cccc(C(=O)O)c2)c2ccccc21` [Example 82, 3-{3-[1-(4-Chloro-benzyl)-2-methyl-prop-(Z)-ylidene]-2-oxo-2,3-dihydro-indol-1-ylmethyl}-benzoic acid] yielded an EC50 of 1.6 µM.

In the case of `NS(=O)(=O)c1ccc(/C(=C2/C(=O)N(Cc3cccc(C(=O)O)c3)c3ccccc32)c2ccccc2)cc1` [Example 67, 3-{2-Oxo-3-[1-phenyl-1-(4-sulfamoyl-phenyl)-meth-(E)-ylidene]-2,3-dihydro-indol-1-ylmethyl}-benzoic acid], the EC50 is reported as 1.27 µM.

`COC(=O)c1cccc(CN2C(=O)/C(=C(\c3ccccc3)c3ccccc3S(C)(=O)=O)c3ccccc32)c1` [Example 32, 3-{3-[1-(2-Methanesulfonyl-phenyl)-1-phenyl-meth-(E)-ylidene]-2-oxo-2,3-dihydro-indol-1-ylmethyl}-benzoic acid methyl ester] gave an EC50 of 10.5 µM.

`COc1ccccc1/C(=C1\C(=O)N(Cc2cccc(C(=O)O)c2)c2ccccc21)c1ccc(Cl)cc1` [Example 47, 3-{3-[1-(4-Chloro-phenyl)-1-(2-methoxy-phenyl)-meth-(Z)-ylidene]-2-oxo-2,3-dihydro-indol-1-ylmethyl}-benzoic acid] gave an EC50 of 2.38 µM.

Work on `CC(C)CC/C(=C1/C(=O)N(Cc2cccc(C(=O)O)c2)c2ccccc21)c1ccccc1` [Example 81, 3-[3-(4-Methyl-1-phenyl-pent-(Z)-ylidene)-2-oxo-2,3-dihydro-indol-1-ylmethyl]-benzoic acid] yielded an EC50 of 4.74 µM.

`COC(=O)c1cccc(CN2C(=O)/C(=C(\c3ccccc3)c3ccccc3Cl)c3ccccc32)c1` [Example 17, 3-{3-[1-(2-Chloro-phenyl)-1-phenyl-meth-(E)-ylidene]-2-oxo-2,3-dihydro-indol-1-ylmethyl}-benzoic acid methyl ester] gave an EC50 of 2.34 µM.

`O=C1/C(=C(/c2ccccc2)c2ccc(Cl)cc2)c2ccccc2N1Cc1cc(O)c(O)c(O)c1` [Example 42, 3-[1-(4-Chloro-phenyl)-1-phenyl-meth-(Z)-ylidene]-1-(3,4,5-trihydroxy-benzyl)-1,3-dihydro-indol-2-one] was tested, and the EC50 was 4.5 µM.

Work on `O=C(O)c1csc(CN2C(=O)/C(=C(\c3ccccc3)c3ccc(Cl)cc3)c3ccccc32)n1` [Example 76, 2-{3-[1-(4-Chloro-phenyl)-1-phenyl-meth-(E)-ylidene]-2-oxo-2,3-dihydro-indol-1-ylmethyl}-thiazole-4-carboxylic acid] yielded an EC50 of 5.14 µM.

Compound `CC(C)/C(=C1\C(=O)N(Cc2cccc(C(=O)O)c2)c2ccc(Cl)cc21)c1ccc(C(F)(F)F)cc1` [Example 107, 3-{5-Chloro-3-[2-methyl-1-(4-trifluoromethyl-phenyl)-prop-(E)-ylidene]-2-oxo-2,3-dihydro-indol-1-ylmethyl}-benzoic acid] has an EC50 of 0.66 µM.

In the case of `COc1ccc(/C(=C2/C(=O)N(Cc3cccc(C(=O)O)c3)c3ccccc32)c2ccccc2)cc1` [Example 46, 3-{3-[1-(4-Methoxy-phenyl)-1-phenyl-meth-(E)-ylidene]-2-oxo-2,3-dihydro-indol-1-ylmethyl}-benzoic acid], the EC50 is reported as 4.02 µM.
